According to patent US10583154B2, “Multi-dose compositions containing an antimicrobial polyamide or octenidine preservative” (priority 2016, dated 2020):

Legend:
Aspergillus brasiliensis = assay: Antimicrobial preservative efficacy test (dilution neutralization), preservative as WFI solution; type: cell-based
From the text: (§1) Preservatives are commonly used in multi-dose formulations, including animal vaccines, to prevent bacterial or fungal growth in field conditions and are employed to minimize contamination of the formulations during repeated (non-sterile) punctures into the vial. Preservatives must pass antimicrobial effectiveness testing (AET), as described in the US pharmacopeia. As disclosed herein, Applicants performed the antimicrobial tests according to United States Pharmacopeia (USP), British Pharmacopeia (BP), and European Pharmocopeia (EP). Four test organisms were used: Candida albicans, Pseudomonas aeruginosa, Staphylococcus aureus, and A. brasiliensis. And while thimerosal and formol continue to play an important role in veterinary vaccines, European authorities encourage the development of vaccines that are free from those compounds.
(§2) For each concentration of polyamide polymer, dilution neutralization was carried out by inoculating 10 mL of test product with 100 μL of each test strain. Countings were performed at Do, 6 h (bacteria only), 24 h (bacteria only), D7, D14 and D28. For each counting, 1 mL of the sample was neutralized in 9 mL of neutralizing solution (10 minutes), for S. aureus, a second 1:10 dilution in the same solution. Then 1 mL of the mixture was transferred in Petri dishes and covered with 15 mL of agar medium (Trypcase Soy Agar for bacteria and Sabouraud Dextrosed Agar for yeasts and molds). The countings were achieved after 24-48 hours incubation at 32.5° C.±2.5° C. for bacteria, and 48-72 hours at 22.5° C.[…] for yeasts and molds. The test micro-organisms included Staphylococcus aureus, Pseudomonas aeruginosa, Candida albicans and Aspergillus brasiliensis. Finally, the neutralization solution contained: Tween 80 (10%), lecithin (2%), saponin (2%), sodium thiosulfate (0.5%) and buffered solution chloride. The saponin was from the bark of Quillaja saponaria.
(§3) For each concentration of octenidine, dilution neutralization was carried out as disclosed in Example 1.

Candida albicans = assay: as above; type: cell-based
From the text: as §1, §2, §3

Pseudomonas aeruginosa = assay: as above; type: cell-based
From the text: as §1, §2, §3

Staphylococcus aureus = assay: as above; type: cell-based
From the text: as §1, §2, §3

[1] = tested on: S. aureus, P. aeruginosa, C. albicans, A. brasiliensis; assay: Preservative efficacy in TS6 oil-in-water emulsion vaccine, overall verdict; type: cell-based; conditions: 100 μg/ml alone; oily vaccine environment; previous experiment
Protocol: as §2
For each concentration of preservative (or preservative combination), dilution neutralization and other testing was carried out as disclosed in Example 1. The “TS6” formulation is an oil-in-water emulsion, described in U.S. Pat. No. 7,371,395 B2 (to Merial, Inc.; see especially Example 1). […]

Solubility in buffer = type: physicochemical
Protocol: In some embodiments, buffered solutions containing relatively lower amounts of salts, particularly including phosphate salts, are added to the immunogenic composition, or other preserved multi-dose formulation, to improve the solubility of the octenidine. This is based on Applicants' unexpected discovery that octenidine is less soluble in routinely used phosphate buffered saline (PBS). […] As such, in some embodiments, multi-dose formulations including octenidine contain less phosphate than standard PBS. Accordingly, in some embodiments, the buffer may contain for 100 L about 5 g of NaH2PO4 and about 200 g of Sodium bicarbonate (instead of standard PBS, which contains about a 20:1 ratio of Na2HPO4 to KH2PO4).

panel of pathogens = conditions: cited from earlier work
[2] = cited from earlier work
wound healing = conditions: cited from earlier work

## CCCCCCCCN=c1ccn(CCCCCCCCCCn2ccc(=NCCCCCCCC)cc2)cc1.Cl.Cl [Octenidine Dihydrochloride, Octenidine dihydrochloride]
Aspergillus brasiliensis; 0.001 mg/mL, 7 d
  log reduction: 0 log
  viable count: 1.7 × 10^5
Aspergillus brasiliensis; 0.001 mg/mL, 14 d
  log reduction: 0.1 log
  viable count: 1.4 × 10^5
Aspergillus brasiliensis; 0.001 mg/mL, 28 d
  log reduction: 0.3 log
  viable count: 1.0 × 10^5
Aspergillus brasiliensis; 0.001 mg/mL, T0
  viable count: 2.4 × 10^5
Aspergillus brasiliensis; 0.01 mg/mL, 7 d
  log reduction: 0.7 log
  viable count: 3.8 × 10^4
Aspergillus brasiliensis; 0.01 mg/mL, 14 d
  log reduction: 0.8 log
  viable count: 3.2 × 10^4
Aspergillus brasiliensis; 0.01 mg/mL, 28 d
  log reduction: 0.8 log
Aspergillus brasiliensis; 0.01 mg/mL, T0
  viable count: 2.8 × 10^5
Aspergillus brasiliensis; 0.1 mg/mL, 7 d
  log reduction: 0.4 log
  viable count: 7.5 × 10^4
Aspergillus brasiliensis; 0.1 mg/mL, 14 d
  log reduction: 1.3 log
  viable count: 1.0 × 10^4
Aspergillus brasiliensis; 0.1 mg/mL, 28 d
  log reduction: 0.8 log
  viable count: 2.8 × 10^4
Aspergillus brasiliensis; 0.1 mg/mL, T0
  viable count: 1.7 × 10^5
Aspergillus brasiliensis; 1 mg/mL, 7 d
  log reduction: 0.8 log
  viable count: 2.9 × 10^4
Aspergillus brasiliensis; 1 mg/mL, 14 d
  log reduction: 1 log
  viable count: 1.7 × 10^4
Aspergillus brasiliensis; 1 mg/mL, 28 d
  log reduction: 1.1 log
  viable count: 1.4 × 10^4
Aspergillus brasiliensis; 1 mg/mL, T0
  viable count: 1.6 × 10^5
Candida albicans; 0.001 mg/mL, 7 d
  log reduction: 4 log
  viable count: 20
Candida albicans; 0.001 mg/mL, 14 d
  log reduction: 4.3 log
  viable count: 10
Candida albicans; 0.001 mg/mL, 28 d
  log reduction: >4.3 log
  viable count: <10
Candida albicans; 0.001 mg/mL, T0
  viable count: 1.7 × 10^5
Candida albicans; 0.01 mg/mL, 7 d
  log reduction: >4.3 log
  viable count: <10
Candida albicans; 0.01 mg/mL, 14 d
  log reduction: >4.3 log
  viable count: <10
Candida albicans; 0.01 mg/mL, 28 d
  log reduction: >4.3 log
  viable count: <10
Candida albicans; 0.01 mg/mL, T0
  viable count: 2 × 10^3
Candida albicans; 0.1 mg/mL, 7 d
  log reduction: >4.3 log
  viable count: <10
Candida albicans; 0.1 mg/mL, 14 d
  log reduction: >4.3 log
  viable count: <10
Candida albicans; 0.1 mg/mL, 28 d
  log reduction: >4.3 log
  viable count: <10
Candida albicans; 0.1 mg/mL, T0
  viable count: <10
Candida albicans; 1 mg/mL, 7 d
  log reduction: >4.3 log
  viable count: <10
Candida albicans; 1 mg/mL, 14 d
  log reduction: >4.3 log
  viable count: <10
Candida albicans; 1 mg/mL, 28 d
  log reduction: >4.3 log
  viable count: <10
Candida albicans; 1 mg/mL, T0
  viable count: <10
Pseudomonas aeruginosa; 0.001 mg/mL, 6 h
  log reduction: 3 log
  viable count: 1.0 × 10^3
Pseudomonas aeruginosa; 0.001 mg/mL, 24 h
  log reduction: 3 log
  viable count: 1.0 × 10^4
Pseudomonas aeruginosa; 0.001 mg/mL, 7 d
  log reduction: 0 log
  viable count: >3.3 × 10^6
Pseudomonas aeruginosa; 0.001 mg/mL, 14 d
  log reduction: 0 log
  viable count: >3.3 × 10^6
Pseudomonas aeruginosa; 0.001 mg/mL, 28 d
  log reduction: 0 log
  viable count: >3.3 × 10^6
Pseudomonas aeruginosa; 0.001 mg/mL, T0
  viable count: 7.5 × 10^4
Pseudomonas aeruginosa; 0.01 mg/mL, 6 h
  log reduction: >5.1 log
  viable count: <10
Pseudomonas aeruginosa; 0.01 mg/mL, 24 h
  log reduction: >5.1 log
  viable count: <10
Pseudomonas aeruginosa; 0.01 mg/mL, 7 d
  log reduction: 4.4 log
  viable count: <10
Pseudomonas aeruginosa; 0.01 mg/mL, 14 d
  log reduction: 4.4 log
  viable count: <10
Pseudomonas aeruginosa; 0.01 mg/mL, 28 d
  log reduction: 4.4 log
  viable count: <10
Pseudomonas aeruginosa; 0.01 mg/mL, T0
  viable count: <10
Pseudomonas aeruginosa; 0.1 mg/mL, 6 h
  log reduction: >5.1 log
  viable count: <10
Pseudomonas aeruginosa; 0.1 mg/mL, 24 h
  log reduction: >5.1 log
  viable count: <10
Pseudomonas aeruginosa; 0.1 mg/mL, 7 d
  log reduction: 4.4 log
  viable count: 50
Pseudomonas aeruginosa; 0.1 mg/mL, 14 d
  log reduction: >5.1 log
  viable count: <10
Pseudomonas aeruginosa; 0.1 mg/mL, 28 d
  log reduction: >5.1 log
  viable count: <10
Pseudomonas aeruginosa; 0.1 mg/mL, T0
  viable count: <10
Pseudomonas aeruginosa; 1 mg/mL, 6 h
  log reduction: >5.1 log
  viable count: <10
Pseudomonas aeruginosa; 1 mg/mL, 24 h
  log reduction: >5.1 log
  viable count: <10
Pseudomonas aeruginosa; 1 mg/mL, 7 d
  log reduction: >5.1 log
  viable count: <10
Pseudomonas aeruginosa; 1 mg/mL, 14 d
  log reduction: >5.1 log
  viable count: <10
Pseudomonas aeruginosa; 1 mg/mL, 28 d
  log reduction: >5.1 log
  viable count: <10
Pseudomonas aeruginosa; 1 mg/mL, T0
  viable count: <10
Staphylococcus aureus; 0.001 mg/mL, 6 h
  log reduction: 3.8 log
  viable count: 1.6 × 10^2
Staphylococcus aureus; 0.001 mg/mL, 24 h
  log reduction: >5 log
  viable count: <10
Staphylococcus aureus; 0.001 mg/mL, 7 d
  log reduction: 3.7 log
  viable count: 2 × 10^2
Staphylococcus aureus; 0.001 mg/mL, 14 d
  log reduction: 3.9 log
  viable count: 1.4 × 10^2
Staphylococcus aureus; 0.001 mg/mL, 28 d
  log reduction: 4.4 log
  viable count: 40
Staphylococcus aureus; 0.001 mg/mL, T0
  viable count: 1.6 × 10^5
Staphylococcus aureus; 0.01 mg/mL, 6 h
  log reduction: >5 log
  viable count: <10
Staphylococcus aureus; 0.01 mg/mL, 24 h
  log reduction: >5 log
  viable count: <10
Staphylococcus aureus; 0.01 mg/mL, 7 d
  log reduction: >5 log
  viable count: <10
Staphylococcus aureus; 0.01 mg/mL, 14 d
  log reduction: >5 log
  viable count: <10
Staphylococcus aureus; 0.01 mg/mL, 28 d
  log reduction: >5 log
  viable count: <10
Staphylococcus aureus; 0.01 mg/mL, T0
  viable count: 10
Staphylococcus aureus; 0.1 mg/mL, 6 h
  log reduction: >5 log
  viable count: <10^2
Staphylococcus aureus; 0.1 mg/mL, 24 h
  log reduction: >5 log
  viable count: <10^2
Staphylococcus aureus; 0.1 mg/mL, 7 d
  log reduction: >5 log
  viable count: <10^2
Staphylococcus aureus; 0.1 mg/mL, 14 d
  log reduction: >5 log
  viable count: <10^2
Staphylococcus aureus; 0.1 mg/mL, 28 d
  log reduction: >5 log
  viable count: <10^2
Staphylococcus aureus; 0.1 mg/mL, T0
  viable count: <10
Staphylococcus aureus; 1 mg/mL, 6 h
  log reduction: >4 log
  viable count: <10^2
Staphylococcus aureus; 1 mg/mL, 24 h
  log reduction: >4 log
  viable count: <10^2
Staphylococcus aureus; 1 mg/mL, 7 d
  log reduction: >4 log
  viable count: <10^2
Staphylococcus aureus; 1 mg/mL, 14 d
  log reduction: >4 log
  viable count: <10^2
Staphylococcus aureus; 1 mg/mL, 28 d
  log reduction: >4 log
  viable count: <10^2
Staphylococcus aureus; 1 mg/mL, T0
  viable count: <10^2
[1]
  preservative efficacy: did not exhibit satisfactory preservative efficacy
Solubility in buffer; routinely used phosphate buffered saline (PBS)
  solubility: less soluble
Solubility in buffer; sodium phosphate replaced with sodium bicarbonate
  solubility: provided the required solubility
Panel of pathogens
  Efficacy: spectrum: Broad spectrum
  MIC: MIC ≤1 μg/ml
[2]
  LD50 on rat: LD50 on rat = 10 mg/kg
Wound healing
  Cytotoxicity data: demonstrate any adverse effect to wound healing: Cytotoxicity data failed to
